Assay results as given in EP1322622B1, “NEW N, N'-DISUBSTITUTED BENZIMIDAZOLONE DERIVATIVES WITH AFFINITY AT THE SEROTONIN AND DOPAMINE RECEPTORS” (Sprout Pharmaceuticals, Inc., priority 2000, dated 2002).
pIC50: −log10 of the molar value.

Assays:
5-HT1A human receptors = target: T1, 5-HT1A human receptors (Homo sapiens, UniProt P08908); assay: 5-HT1A Radioligand Receptor Binding Assay ([3H]-8-OH-DPAT, CHO cell membranes); conditions: for pIC50: [3H]-8-OH-DPAT displacement, CHO membranes, read-out: 5-HT1A receptor binding IC50
T1 construct: expressed in transfected cells; host or cells: CHO cells
T1 sequence (P08908 1-422): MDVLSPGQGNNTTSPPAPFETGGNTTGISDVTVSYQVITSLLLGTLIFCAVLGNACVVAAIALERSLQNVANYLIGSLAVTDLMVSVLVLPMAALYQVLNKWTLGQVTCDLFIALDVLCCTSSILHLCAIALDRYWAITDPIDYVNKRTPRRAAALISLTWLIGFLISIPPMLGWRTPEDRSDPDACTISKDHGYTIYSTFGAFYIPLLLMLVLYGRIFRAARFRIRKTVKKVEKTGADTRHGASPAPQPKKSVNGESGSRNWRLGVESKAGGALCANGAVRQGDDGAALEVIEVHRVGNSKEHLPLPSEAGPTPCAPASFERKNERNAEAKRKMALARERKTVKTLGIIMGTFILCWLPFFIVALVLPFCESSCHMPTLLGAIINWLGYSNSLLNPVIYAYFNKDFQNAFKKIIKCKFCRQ
Method: Membranes from CHO cells, expressing 5-HT1A human receptors were suspended in incubation buffer.
The compounds were tested in singlicate at one concentration (10^-7 M) in a total volume of 1000 µl. 980 µl of diluted membranes, 10 µl DMSO or unlabelled ligand and 10 µl of [^3H]-8-OH-DPAT (0.6-0.7 nM) were incubated for 60 min at 27 °C. The reaction was stopped by rapid filtration through Tomtec cell Harvester (48 wells) using Filtermat B (presoaked in 0.1% PEI) filters. […] Non specific binding was determined in the presence of 5-HT (10^-5 M).
The specific radioligand binding to the receptor was defined by the difference between total binding and non specific binding, determined in the presence of an excess of unlabelled ligand. Results were expressed as percentage of control specific binding obtained in the presence of the compounds.
The affinity values (IC50) for the compounds were obtained by a non linear least squares regression analysis on the basis of a one binding site model.

CHO/5-HT1A cells = target: T2, CHO/5-HT1A cells (Homo sapiens, UniProt P08908); assay: 5-HT1A Functional assay (cAMP); format: cell-based; conditions: 10 µM compound, % inhibition of the cAMP accumulation induced by 10 µM FSK; for inhibition at 10 µM: read-out: 5-HT1A cAMP % inhib.
T2 construct: expressed in transfected cells; host or cells: CHO/5-HT1A cells
T2 sequence (P08908 1-422): T1 sequence (P08908 1-422)
Method: CHO/5-HT1A cells were random seeded at a density of about 200,000/well in 24 well plates the day prior to the experiment. On the day of the experiment, cells were pretreated for 15 min at 37 °C with 500 µM isobuthylmethylxantine (IBMX) dissolved in culture medium without serum. Wells were then divided in different groups in duplicate as follows: control, 10 µM FSK, 10 µM FSK + 1 µM 5-HT as positive standard and 10 µM FSK + 10 µM of the different compound under evaluation. Sample solutions were added and incubated for additional 15 min at 37 °C. After incubation, medium was aspirated and the reaction stopped by adding 200 µl of lysis buffer. Plates were shaken for 5 min, then the lysate was removed and samples were stored at 4 °C until the day of the assay. For the cAMP evaluation, samples were properly diluted and the cAMP content was measured by an enzymeimmunoassay system.

SMILES: CCNC(=O)OCCn1c(=O)n(CCN2CCN(c3cccc(Cl)c3)CC2)c2ccccc21 [compound 202]
- pIC50 (5-HT1A human receptors): 8.77
- inhibition at 10 µM (CHO/5-HT1A cells): 72%

SMILES: CCNC(=O)OCCn1c(=O)n(CCN2CCN(c3cccc(C)c3)CC2)c2ccccc21 [compound 217]
- pIC50 (5-HT1A human receptors): 8.28
- inhibition at 10 µM (CHO/5-HT1A cells): 68%

SMILES: O=c1n(C/C=C/CN2CCN(c3ccccn3)CC2)c2ccccc2n1CCN1CCOCC1 [compound 347]
- inhibition at 10 µM (CHO/5-HT1A cells): 65%

SMILES: O=c1n(C/C=C/CN2CCN(c3cccc(C(F)(F)F)c3)CC2)c2ccccc2n1CCN1CCOCC1 [compound 352]
- inhibition at 10 µM (CHO/5-HT1A cells): 79%

SMILES: O=c1n(C/C=C\CN2CCN(c3cccc(Cl)c3)CC2)c2ccccc2n1CCO [compound 365]
- inhibition at 0.1 µM (5-HT1A human receptors; compound at 10^-7 M, singlicate, [3H]-8-OH-DPAT 0.6-0.7 nM, read-out: 5-HT1A receptor binding assay % inhib. (10^-7 M)): 89%
- inhibition at 10 µM (CHO/5-HT1A cells): 82%

SMILES: O=c1n(C/C=C/CN2CCN(c3ccccn3)CC2)c2ccccc2n1CCO [compound 381]
- inhibition at 10 µM (CHO/5-HT1A cells): 79%

SMILES: CCNC(=O)OCCn1c(=O)n(CC=CCN2CCN(c3cccc(C(F)(F)F)c3)CC2)c2ccccc21 [compound 403]
- inhibition at 10 µM (CHO/5-HT1A cells): 84%

SMILES: CCNC(=O)OCCn1c(=O)n(C/C=C/CN2CCN(c3ccccn3)CC2)c2ccccc21 [compound 415]
- inhibition at 10 µM (CHO/5-HT1A cells): 82%

SMILES: CCNC(=O)OCCn1c(=O)n(CC=CCN2CCN(c3cccc(C(F)(F)F)c3)CC2)c2ccccc21 [compound 420]
- 5-HT1A cAMP % inhib. (CHO/5-HT1A cells): 87%

SMILES: CCNC(=O)OCCn1c(=O)n(CC=CCN2CC=C(c3ccccc3)CC2)c2ccccc21 [compound 421]
- 5-HT1A cAMP % inhib. (CHO/5-HT1A cells): 56%

SMILES: CC(=O)NCCn1c(=O)n(C/C=C\CN2CCN(c3cccc(C(F)(F)F)c3)CC2)c2ccccc21 [compound 459]
- inhibition at 10 µM (CHO/5-HT1A cells): 86%

SMILES: CC(=O)NCCn1c(=O)n(C/C=C\CN2CCN(c3cccc(C)c3C)CC2)c2ccccc21 [compound 468]
- pIC50 (5-HT1A human receptors): 8.51
- inhibition at 10 µM (CHO/5-HT1A cells): 66%

SMILES: CC(=O)NCCn1c(=O)n(C/C=C\CN2CCN(c3ccccc3Cl)CC2)c2ccccc21 [compound 472]
- inhibition at 10 µM (CHO/5-HT1A cells): 67%

SMILES: CS(=O)(=O)NCCn1c(=O)n(CC=CCN2CCN(c3cccc(Cl)c3)CC2)c2ccccc21 [compound 499]
- inhibition at 10 µM (CHO/5-HT1A cells): 74%

SMILES: CS(=O)(=O)NCCn1c(=O)n(C/C=C\CN2CCN(c3cccc(C(F)(F)F)c3)CC2)c2ccccc21 [compound 503]
- inhibition at 10 µM (CHO/5-HT1A cells): 87%

SMILES: Cc1cccc(N2CCN(C/C=C\Cn3c(=O)n(CCNS(C)(=O)=O)c4ccccc43)CC2)c1C [compound 512]
- inhibition at 10 µM (CHO/5-HT1A cells): 68%

SMILES: Cc1cccc(N2CCN(CC=CCn3c(=O)n(CCNS(C)(=O)=O)c4ccccc43)CC2)c1 [compound 514]
- inhibition at 10 µM (CHO/5-HT1A cells): 67%

SMILES: CS(=O)(=O)NCCn1c(=O)n(C/C=C/CN2CCN(c3ccccn3)CC2)c2ccccc21 [compound 520]
- inhibition at 10 µM (CHO/5-HT1A cells): 70%

SMILES: CS(=O)(=O)NCCn1c(=O)n(CC=CCN2CCN(c3cccc(Cl)c3)CC2)c2ccccc21 [compound 521]
- 5-HT1A cAMP % inhib. (CHO/5-HT1A cells): 67%

SMILES: Cc1cccc(N2CCN(C/C=C/Cn3c(=O)n(CCNS(C)(=O)=O)c4ccccc43)CC2)c1 [compound 536]
- pIC50 (5-HT1A human receptors): 8.02
- inhibition at 10 µM (CHO/5-HT1A cells): 55%
